Laboratory results as given in paper PMC10114980, “Triple targeting of mutant EGFR^L858R/T790M, COX-2, and 15-LOX: design and synthesis of novel quinazolinone tethered phenyl urea derivatives for anti-inflammatory and anticancer evaluation” (Journal of Enzyme Inhibition and Medicinal Chemistry, 2023).

How the values were obtained:
LOX IMVI = test: NCI single dose screen, LOX IMVI; type: cell-based; conditions: Homo sapiens, melanoma, single dose 10^−5 M, read-out: growth inhibition percentage
Procedure: (§1) Screening of the anticancer activity of the newly synthesised compounds (6a, 6c, 6d, 6e, 6j, 6l, 6m, 6n, 6o, and 6p) was performed by the US National Cancer Institute (NCI) using 60 different human tumour cell lines in accordance with standard procedures formerly reported.
(§2) In vitro anticancer screening was carried out for the selected compounds at a single dose (10^−5 M) against 60 different human tumour cell lines of nine different cancer cell types: leukaemia, lung, colon, CNS, melanoma, ovarian, renal, prostate, and breast cancers.

HCT-15 = test: NCI single dose screen, HCT-15; type: cell-based; conditions: Homo sapiens; HCT-15, colon cancer; single dose 10^−5 M; read-out: growth inhibition percentage
Procedure: as §1, §2

OVCAR-5 = test: NCI single dose screen, OVCAR-5; type: cell-based; conditions: Homo sapiens; OVCAR-5, ovarian cancer; single dose 10^−5 M; read-out: growth inhibition percentage
Procedure: as §1, §2

HS 578T = test: NCI single dose screen, HS 578T; type: cell-based; conditions: Homo sapiens, breast cancer, single dose 10^−5 M, read-out: growth inhibition percentage
Procedure: as §1, §2

SK-MEL-28 = test: NCI single dose screen, SK-MEL-28; type: cell-based; conditions: Homo sapiens; SK-MEL-28, melanoma; single dose 10^−5 M; read-out: growth inhibition percentage
Procedure: as §1, §2

NCI-H522 = test: NCI single dose screen, NCI-H522; type: cell-based; conditions: Homo sapiens; NCI-H522, non-small cell lung cancer; single dose 10^−5 M; read-out: growth inhibition percentage
Procedure: as §1, §2

SK-OV-3 = test: NCI single dose screen, SK-OV-3; type: cell-based; conditions: Homo sapiens; SK-OV-3, ovarian cancer; single dose 10^−5 M; read-out: growth inhibition percentage
Procedure: as §1, §2

HCT-116 = test: NCI single dose screen, HCT-116; type: cell-based; conditions: Homo sapiens; HCT-116, colon cancer; single dose 10^−5 M; read-out: growth inhibition percentage
Procedure: as §1, §2

MDA-MB-435 = test: NCI single dose screen, MDA-MB-435; type: cell-based; conditions: Homo sapiens; MDA-MB-435, melanoma; single dose 10^−5 M; read-out: growth inhibition percentage
Procedure: as §1, §2

MOLT-4 = test: NCI single dose screen, MOLT-4; type: cell-based; conditions: Homo sapiens; MOLT-4, leukaemia; single dose 10^−5 M; read-out: growth inhibition percentage
Procedure: as §1, §2

HL-60(TB) = test: NCI single dose screen, HL-60(TB); type: cell-based; conditions: Homo sapiens, leukaemia, single dose 10^−5 M, read-out: growth inhibition percentage
Procedure: as §1, §2

IGROV1 = test: NCI single dose screen, IGROV1; type: cell-based; conditions: Homo sapiens, IGROV-1; IGROV1, ovarian cancer; single dose 10^−5 M; read-out: growth inhibition percentage
Procedure: as §1, §2

[1] = Cell viability assay against normal cell line (MTS); type: cell-based; conditions: mouse, RAW 264.7 cells, concentrations up to 50 μM, read-out: cell viability percentage of the control values
Procedure: To evaluate the possible non-selective cytotoxic effect of the investigated compounds (6a, 6c, 6d, 6e, 6j, 6l, 6m, 6n, 6o, and 6p) on normal cells, their effect on RAW 264.7 cells viability was assessed at different concentrations (12.5, 25, 50, and 100 µM). Cell viability was measured using 3-(4,5-dimethylthiazol-2-yl)-5-(3-carboxymethoxyphenyl)-2-(4 sulfophenyl)-2H-tetrazolium (MTS) assay (Promega, Madison, Wisconsin) according to the manufacturer’s instructions.

A549/ATCC = test: NCI single dose screen, A549/ATCC; type: cell-based; conditions: Homo sapiens, non-small cell lung cancer, single dose 10^−5 M, read-out: growth inhibition percentage
Procedure: as §1, §2

EKVX = test: NCI single dose screen, EKVX; type: cell-based; conditions: Homo sapiens, non-small cell lung cancer, single dose 10^−5 M, read-out: growth inhibition percentage
Procedure: as §1, §2

MDA-MB-231/ATCC = test: NCI single dose screen, MDA-MB-231/ATCC; type: cell-based; conditions: Homo sapiens, breast cancer, single dose 10^−5 M, read-out: growth inhibition percentage
Procedure: as §1, §2

MCF7 = test: NCI single dose screen, MCF7; type: cell-based; conditions: Homo sapiens; MCF7, breast cancer; single dose 10^−5 M; read-out: growth inhibition percentage
Procedure: as §1, §2

MDA-MB-468 = test: NCI single dose screen, MDA-MB-468; type: cell-based; conditions: Homo sapiens; MDA-MB-468, breast cancer; single dose 10^−5 M; read-out: growth inhibition percentage
Procedure: as §1, §2

[2] = tested on: LPS-induced ROS production in RAW 264.7 cells; test: ROS production in LPS-activated RAW 264.7 macrophage cells (DCFH-DA); type: cell-based; conditions: Mus musculus, RAW264.7; LPS-activated RAW 264.7 cells; mean ± SEM, three replicates
Procedure: TNF-α and IL-6 production were detected in RAW 264.7 macrophage cell culture supernatants following the induction of inflammation by LPS. Moreover, the probes of oxidative species 2,7-dichlorofluorescein diacetate (DCFH-DA) (Molecular Probes) and NO, 4-amino-5-methylamino-2,7-difluorofluorescein diacetate (DAF-FM diacetate) (Molecular Probes) were used to investigate the antioxidant and NO production inhibitory potential of the test compounds. Briefly, RAW 264.7 cells were cultured in black 96 well plates (200 000 cells/mL, 100 µl/well) for 24 h followed by the incubation with the individual test compounds or the reference drugs at different concentrations (12.5, 25, 50, and 100 µM) for 2 h at 37 °C. LPS was then added at a final concentration of 1 µg/mL for an additional 18 h. The cell culture supernatant was collected from cells treated with the different compounds at 25 µM to measure TNF-α and IL-6 levels (1:10 dilution) using DuoSet ELISA kits (R&D Systems, Minneapolis, MN) following the manufacturer’s instructions. Then, the plates were washed to perform ROS and NO detection assays as detailed in our previous studies[16]^,[27].

COLO 205 = test: NCI single dose screen, COLO 205; type: cell-based; conditions: Homo sapiens; COLO 205, colon cancer; single dose 10^−5 M; read-out: growth inhibition percentage
Procedure: as §1, §2

[3] = biological target: T1, double mutant EGFR^L858R/T790M (Homo sapiens, UniProt P00533, L858R/T790M); test: In vitro EGFR inhibition assay, double mutant; type: biochemical; conditions: for IC50: double mutant EGFR; for Selectivity (SI): ratio of the IC50 values EGFR^WT/EGFR^L858R/T790M
T1 construct: purchased AssayQuant Technologies, Inc. (Marlboro, MA, USA)
T1 sequence (P00533 25-1210 T790M/L858R): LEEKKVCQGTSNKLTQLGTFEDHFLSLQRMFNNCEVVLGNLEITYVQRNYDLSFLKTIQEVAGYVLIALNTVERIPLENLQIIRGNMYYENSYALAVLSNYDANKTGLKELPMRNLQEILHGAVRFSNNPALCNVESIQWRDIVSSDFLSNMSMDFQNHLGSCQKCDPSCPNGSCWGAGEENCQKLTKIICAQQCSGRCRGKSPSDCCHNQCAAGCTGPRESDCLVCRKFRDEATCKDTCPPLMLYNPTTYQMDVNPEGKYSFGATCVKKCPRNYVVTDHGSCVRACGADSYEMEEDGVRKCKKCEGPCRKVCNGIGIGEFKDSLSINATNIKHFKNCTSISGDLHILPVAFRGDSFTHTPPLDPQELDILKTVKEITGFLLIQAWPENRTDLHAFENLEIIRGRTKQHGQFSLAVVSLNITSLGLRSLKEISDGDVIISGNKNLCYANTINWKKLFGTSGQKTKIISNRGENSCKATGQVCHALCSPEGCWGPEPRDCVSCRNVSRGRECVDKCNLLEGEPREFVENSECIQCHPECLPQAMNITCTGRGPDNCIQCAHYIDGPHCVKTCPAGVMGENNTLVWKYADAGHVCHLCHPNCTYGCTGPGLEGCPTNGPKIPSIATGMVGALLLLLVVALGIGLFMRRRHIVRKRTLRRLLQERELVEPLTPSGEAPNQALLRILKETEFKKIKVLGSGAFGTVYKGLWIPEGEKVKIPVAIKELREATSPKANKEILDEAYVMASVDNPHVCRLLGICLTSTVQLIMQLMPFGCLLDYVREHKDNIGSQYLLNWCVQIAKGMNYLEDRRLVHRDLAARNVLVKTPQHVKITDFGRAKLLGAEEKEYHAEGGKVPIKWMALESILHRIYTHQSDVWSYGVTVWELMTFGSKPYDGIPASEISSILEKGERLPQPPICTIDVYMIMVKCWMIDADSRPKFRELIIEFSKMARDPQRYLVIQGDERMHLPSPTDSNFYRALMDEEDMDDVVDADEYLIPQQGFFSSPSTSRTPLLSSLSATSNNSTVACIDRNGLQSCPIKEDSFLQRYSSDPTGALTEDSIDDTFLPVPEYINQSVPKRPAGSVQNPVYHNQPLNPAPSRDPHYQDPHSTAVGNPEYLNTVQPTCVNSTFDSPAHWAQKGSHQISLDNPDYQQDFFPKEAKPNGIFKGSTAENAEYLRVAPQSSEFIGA

| SMILES | inhibition at 10 µM (LOX IMVI) [%] | inhibition at 10 µM (HCT-15) [%] | inhibition at 10 µM (OVCAR-5) [%] | inhibition at 10 µM (HS 578T) [%] | inhibition at 10 µM (SK-MEL-28) [%] | inhibition at 10 µM (NCI-H522) [%] | inhibition at 10 µM (SK-OV-3) [%] | inhibition at 10 µM (HCT-116) [%] | inhibition at 10 µM (MDA-MB-435) [%] | inhibition at 10 µM (MOLT-4) [%] | inhibition at 10 µM (HL-60(TB)) [%] | inhibition at 10 µM (IGROV1) [%] | viability [1] [%] | inhibition at 10 µM (A549/ATCC) [%] | inhibition at 10 µM (EKVX) [%] | inhibition at 10 µM (MDA-MB-231/ATCC) [%] | inhibition at 10 µM (MCF7) [%] | inhibition at 10 µM (MDA-MB-468) [%] | IC50 [2] [µM] | inhibition at 10 µM (COLO 205) [%] | other results |
| --- | --- | --- | --- | --- | --- | --- | --- | --- | --- | --- | --- | --- | --- | --- | --- | --- | --- | --- | --- | --- | --- |
| CN1CN(NC(=O)Nc2ccccc2)C(=O)c2ccccc21 [Compound 6a, 1-(1-Methyl-4-oxo-1,4-dihydroquinazolin-3(2H)-yl)-3-phenylurea] | < 10 | < 10 | < 10 | < 10 | < 10 | < 10 | < 10 | < 10 | < 10 | < 10 | < 10 | < 10 | > 90 | < 10 | < 10 | < 10 | < 10 | < 10 | 35.7 ± 1.08 | < 10 | IC50 [3]: 0.46 ± 1.11 µM; Selectivity (SI) [3]: >217 |
| CN1c2ccccc2C(=O)N(NC(=O)Nc2ccc(F)cc2)C1c1ccccc1 (stereo not drawn) [Compound 6m, 1-(4-Fluorophenyl)-3-(1-methyl-4-oxo-2-phenyl-1,4-dihydroquinazolin-3(2H)-yl)urea] | 21.9 | 14.3 | < 10 | < 10 | < 10 | < 10 | < 10 | < 10 | < 10 | 23.5 | < 10 | < 10 | > 90 | < 10 | 10.5 | 23 | 21.2 | < 10 | 57.2 ± 1 | < 10 | IC50 [3]: 4.07 ± 3.7 µM |
| COc1ccc(NC(=O)NN2C(=O)c3ccccc3N(C)C2c2ccc(OC)cc2)cc1 (stereo not drawn) [Compound 6j, 1-(4-Methoxyphenyl)-3-(2-(4-methoxyphenyl)-1-methyl-4-oxo-1,4-dihydroquinazolin-3(2H)-yl)urea] | < 10 | < 10 | < 10 | < 10 | < 10 | < 10 | < 10 | 40.6 | < 10 | < 10 | < 10 | < 10 | > 90 | < 10 | < 10 | < 10 | < 10 | < 10 | 24.1 ± 1.08 | < 10 | IC50 [3]: 4.03 ± 1.43 µM; Selectivity (SI) [3]: >24.8 |
| CN1c2ccccc2C(=O)N(NC(=O)Nc2ccc(F)cc2)C1c1ccc(F)cc1 (stereo not drawn) [Compound 6n, 1-(4-Fluorophenyl)-3-(2–(4-fluorophenyl)-1-methyl-4-oxo-1,4-dihydroquinazolin-3(2H)-yl)urea] | 31.6 | 17.5 | < 10 | 19.7 | < 10 | < 10 | 22.9 | 22.9 | 25.8 | 43.1 | < 10 | < 10 | > 90 | < 10 | 16.4 | 29.8 | 29.9 | < 10 | 39.4 ± 2.25 | < 10 | IC50 [3]: 13.5 ± 2.22 µM; Selectivity (SI) [3]: >7.4 |
| COc1ccc(C2N(NC(=O)Nc3ccc(F)cc3)C(=O)c3ccccc3N2C)cc1 (stereo not drawn) [Compound 6p, 1-(4-Fluorophenyl)-3-(2–(4-methoxyphenyl)-1-methyl-4-oxo-1,4-dihydroquinazolin-3(2H)-yl)urea] | 18.1 | < 10 | < 10 | < 10 | < 10 | < 10 | < 10 | 14 | 10.7 | 11.2 | < 10 | < 10 | > 90 | < 10 | < 10 | 12.6 | 14.7 | < 10 | 38.6 ± 1.33 | < 10 | IC50 [3]: 5.41 ± 3.21 µM; Selectivity (SI) [3]: >18.5 |
| CC1N(NC(=O)Nc2ccc(F)cc2)C(=O)c2ccccc2N1C (stereo not drawn) [Compound 6l, 1–(1,2-Dimethyl-4-oxo-1,4-dihydroquinazolin-3(2H)-yl)-3-(4-fluorophenyl)urea] | < 10 | < 10 | < 10 | < 10 | < 10 | < 10 | < 10 | < 10 | < 10 | < 10 | < 10 | < 10 | > 90 | < 10 | < 10 | < 10 | 10.7 | < 10 | 37.9 ± 1 | < 10 | IC50 [3]: 17 ± 1.4 µM; Selectivity (SI) [3]: >5.8 |
| CN1c2ccccc2C(=O)N(NC(=O)Nc2ccc(F)cc2)C1c1ccc([N+](=O)[O-])cc1 (stereo not drawn) [Compound 6o, 1-(4-Fluorophenyl)-3–(1-methyl-2-(4-nitrophenyl)-4-oxo-1,4-dihydroquinazolin-3(2H)-yl)urea] | 29.5 | 10.7 | < 10 | < 10 | < 10 | < 10 | < 10 | 21.6 | 19.9 | 20.4 | < 10 | < 10 | > 90 | < 10 | 19.8 | 22.5 | 17.9 | < 10 | 23.4 ± 1.13 | < 10 | IC50 [3]: 36 ± 2.58 µM; Selectivity (SI) [3]: 1.5 |
